Converted amounts (≈) assume the structure as drawn. The source made the active and inactive calls. No cut-off for these calls is given here.
Legend:
[1] = tested on: Saccharomyces cerevisiae; assay: Antimicrobial activity against Saccharomyces cerevisiae MTCC 170 after 24 hr by two-fold serial dilution method; format: functional; conditions: MTCC 170, 24 h
[2] = tested on: Candida albicans; assay: Antimicrobial activity against Candida albicans MTCC 227 at 2 mg/ml by two-fold serial dilution method; format: functional
[3] = tested on: Candida albicans; assay: Antimicrobial activity against Candida albicans MTCC 227 at 2 mg/ml by agar well diffusion method; format: functional; conditions: read-out: DIZ
[4] = tested on: Saccharomyces cerevisiae; assay: Antimicrobial activity against Saccharomyces cerevisiae MTCC 170 at 2 mg/ml after 24 hr by agar well diffusion method; format: functional; conditions: MTCC 170, 24 h, read-out: DIZ
[5] = tested on: Pseudomonas aeruginosa; assay: Antimicrobial activity against Pseudomonas aeruginosa MTCC 741 at 2 mg/ml after 24 hr by agar well diffusion method; format: functional, organism-based
[6] = tested on: Escherichia coli; assay: Antimicrobial activity against Escherichia coli MTCC 1652 at 2 mg/ml after 24 hr by agar well diffusion method; format: functional, organism-based
[7] = tested on: Bacillus subtilis; conditions: MTCC 121
Description: Antimicrobial activity against Bacillus subtilis MTCC 121 at 2 mg/ml after 24 hr by two-fold serial dilution method

[8] = tested on: Staphylococcus aureus; conditions: MTCC 96
Description: Antimicrobial activity against Staphylococcus aureus MTCC 96 after 24 hr by two-fold serial dilution method

[9] = tested on: Staphylococcus aureus; conditions: MTCC 96; remark: listed apart in the source
Description: Antimicrobial activity against Staphylococcus aureus MTCC 96 at 2 mg/ml after 24 hr by agar well diffusion method

[10] = tested on: Bacillus subtilis; conditions: MTCC 121; remark: listed apart in the source
Description: Antimicrobial activity against Bacillus subtilis MTCC 121 at 2 mg/ml after 24 hr by agar well diffusion method

MIC [1]: 64 µg/mL (≈ 192 µM)
MIC [2]: 128 µg/mL (≈ 384 µM)
MIC [7]: inactive
MIC [8]: inactive
SMILES: CCOC1Sc2nnc(CC)n2N=C1c1ccc([N+](=O)[O-])cc1 (stereo not given)
zone of inhibition at 2000 µg/mL [3]: 13.3 mm
zone of inhibition at 2000 µg/mL [4]: 15.6 mm
Activity [5]: inactive
Activity [6]: inactive
DIZ [9]: inactive
DIZ [10]: inactive
